{"source": "paper PMC11173382", "about": "“In Vitro Investigations into the Potential Drug Interactions of Pseudoginsenoside DQ Mediated by Cytochrome P450 and Human Drug Transporters” (Molecules, 2024)", "key": {"[1]": {"target": "T1, CYP1A2 (Homo sapiens, UniProt P05177)", "T1 construct": "tissue Corning 452117; host or cells: human liver microsomes", "T1 sequence (P05177 1-516)": "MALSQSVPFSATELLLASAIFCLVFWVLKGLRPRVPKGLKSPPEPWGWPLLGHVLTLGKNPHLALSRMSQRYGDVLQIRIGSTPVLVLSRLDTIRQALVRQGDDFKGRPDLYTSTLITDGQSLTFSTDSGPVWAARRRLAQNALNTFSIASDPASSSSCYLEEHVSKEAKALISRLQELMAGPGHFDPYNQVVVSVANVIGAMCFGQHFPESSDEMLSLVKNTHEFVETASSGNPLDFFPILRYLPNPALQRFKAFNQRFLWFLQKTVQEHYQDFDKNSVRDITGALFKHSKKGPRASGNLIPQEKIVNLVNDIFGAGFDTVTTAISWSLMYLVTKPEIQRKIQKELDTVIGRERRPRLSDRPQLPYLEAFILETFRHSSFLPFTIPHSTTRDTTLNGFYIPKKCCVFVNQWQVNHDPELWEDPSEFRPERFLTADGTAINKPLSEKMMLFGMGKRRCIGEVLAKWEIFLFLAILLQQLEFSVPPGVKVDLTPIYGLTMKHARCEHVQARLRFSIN", "test": "CYP450 inhibition assay in human liver microsomes, CYP1A2", "format": "in vitro ADME", "procedure": "(§1) To evaluate the reliability and reproducibility of the CYP450 inhibition assay, we measured the inhibitory effects of selected positive control inhibitors of each CYP450 enzyme in human liver microsomes (HLM, Table 1, Figure 2). The potency of inhibition was estimated by observing the alteration in concentration of metabolites of CYP450 substrates (Table 1).\n(§2) Reagents preparation. […] The stock solution of PDQ (10 mM) was prepared with methanol and further diluted to the range of 3 µM to 3 mM with methanol to ensure that the solvent of different PDQ samples contained the same amount (1%) of methanol.\n(§3) The stock solutions of the positive control inhibitors and the probe substrates of CYP450 enzymes were prepared in methanol.\n(§4) CYP450 inhibition assay. […] The assay was conducted in polypropylene 96-well plates (2.2 mL/well, Apricot Designs Inc., Covina, CA, USA).\nThe total volume of the reaction is 200 μL. The HLM mixtures (102 μL) containing individual probe substrates (Table 3), KH2PO4 buffer (100 mM, pH 7.4), and either PDQ or the positive control inhibitors (Table 3) were incubated for 10 min at 37 °C in a shaking incubator. Reactions were initiated by adding 98 μL NADPH (final concentration is 1.3 mM NADPH, 3 mM MgCl2 in 100 mM KH2PO4 buffer). The HLM reaction mixtures were shaken at 37 °C for various times (Table 4). The reaction time of CYP3A4 (midazolam), CYP2C19 and CYP2D6 were 3, 20 and 20 min, respectively, while the reactions of other CYP enzymes were terminated after 10 min. The reactions were quenched by adding 200 μL acetonitrile containing 3% formic acid and specific internal standards (Table 4). After shaking at 1000 rpm for 10 min, the reaction mixtures were centrifuged at 4000 rpm for 20 min. Supernatants were diluted with ultrapure water (Table 4) and shaken for 10 min at 1000 rpm. […] The substrates and analytes were analyzed by LC-MS/MS (API4000, Applied Biosystems, Singapore; HPLC, Shimadzu, Japan). […]\n(§5) Data analysis. […] The IC50 was determined by fitting the dependence of the relative remaining activity (y = Vi/V0) to the following three-parameter equation (Equation (1)). […]"}, "[2]": {"target": "T2, CYP2C9 (Homo sapiens, UniProt P11712)", "T2 construct": "tissue Corning 452117; host or cells: human liver microsomes", "T2 sequence (P11712 whole entry)": "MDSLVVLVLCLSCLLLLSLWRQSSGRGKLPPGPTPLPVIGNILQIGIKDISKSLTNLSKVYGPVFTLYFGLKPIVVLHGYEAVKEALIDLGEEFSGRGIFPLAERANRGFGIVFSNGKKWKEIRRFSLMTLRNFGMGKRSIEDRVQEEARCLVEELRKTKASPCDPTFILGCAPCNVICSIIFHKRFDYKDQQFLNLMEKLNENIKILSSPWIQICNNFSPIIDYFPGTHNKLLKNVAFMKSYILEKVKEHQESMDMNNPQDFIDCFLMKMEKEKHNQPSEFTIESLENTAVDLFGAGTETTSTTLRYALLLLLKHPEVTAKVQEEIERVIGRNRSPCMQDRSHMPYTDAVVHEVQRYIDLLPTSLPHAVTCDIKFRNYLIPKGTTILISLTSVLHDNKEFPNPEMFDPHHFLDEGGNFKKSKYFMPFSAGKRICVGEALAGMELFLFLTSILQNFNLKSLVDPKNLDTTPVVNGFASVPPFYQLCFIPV", "test": "CYP450 inhibition assay in human liver microsomes, CYP2C9", "format": "in vitro ADME", "settings": "HLM 0.1 mg/mL; probe diclofenac 10 µM; 10 min", "procedure": "as §1, §2, §3, §4\nThe total volume of the reaction is 200 μL. […] The substrates and analytes were analyzed by LC-MS/MS (API4000, Applied Biosystems, Singapore; HPLC, Shimadzu, Japan). […]\nas §5"}}, "data": [{"smiles": "CC(C)(O)[C@@H]1CC[C@@](C)([C@H]2CC[C@]3(C)[C@@H]2[C@H](O)C[C@@H]2[C@@]4(C)CC[C@H](O)C(C)(C)[C@@H]4CC[C@]23C)O1", "note": "[PDQ, (20S,24S)-dammar-20,24-epoxy-3β, 12β, 25-triol]", "values": [{"measurement": "IC50", "setting": "[1]; HLM 0.1 mg/mL, probe phenacetin 75 µM, 10 min", "result": "> 100", "unit": "µM"}, {"measurement": "effect on CYP1A2-catalyzed de-ethylation", "setting": "[1]; PDQ within the range of 0.03 to 30.0 μM, HLM", "result": "activated"}, {"measurement": "percentage mean control activity of CYP1A2", "setting": "[1]; highest tested dose of PDQ (100 μM), HLM", "result": 100.8, "unit": "%"}, {"measurement": "IC50", "setting": "[2]", "result": 11.7, "unit": "µM"}]}]}
